Reference: patent US8314131B2, “Triazole fused heteroaryl compounds and methods of use thereof” (Amgen Inc., priority 2007, dated 2012)

How the values were obtained:
IL-1 = experiment: LPS induced IL-1 cell assay (LPS-induced release of IL-1β from monocytes); format: cell-based; settings: Homo sapiens, Monocyte; LPS-activated monocytes
Experimental: Lipopolysaccharide-Activated Monocyte TNF Production Assay
Test compounds were evaluated in vitro for the ability to inhibit the production of TNF by monocytes activated with bacterial lipopolysaccharide (LPS). Fresh residual source leukocytes (a byproduct of plateletpheresis) were obtained from a local blood bank, and peripheral blood mononuclear cells (PBMCs) were isolated by density gradient centrifugation on Ficol-Paque Plus (Pharmacia). PBMCs were suspended at 2×10^6/mL in DMEM supplemented to contain 2% FCS, 10 mM, 0.3 mg/mL […], 100 U/mL penicillin G and […] streptomycin sulfate (complete media). Cells were plated into Falcon flat bottom, 96 well culture plates (200 μL/well) and cultured overnight at 37° C. and 6% CO2. Non-adherent cells were removed by washing with 200 μl/well of fresh medium. Wells containing adherent cells (˜70% monocytes) were replenished with 100 μL of fresh medium.
Preparation of Test Compound Stock Solutions
Test compounds were dissolved in […]. Compound stock solutions were prepared to an initial concentration of […]. Stocks were diluted initially to 20-200 μM in complete media. Nine two-fold serial dilutions of each compound were then prepared in complete medium.
Treatment of Cells with Test Compounds and Activation of TNF Production with Lipopolysaccharide
One hundred microliters of each test compound dilution were added to microtiter wells containing adherent monocytes and 100 μL complete medium. Monocytes were cultured with test compounds for 60 min at which time 25 μL of complete medium containing 30 ng/mL lipopolysaccharide from E. coli K532 were added to each well. Cells were cultured an additional 4 hrs. Culture supernatants were then removed and TNF presence in the supernatants was quantified using an ELISA.
Compounds of the invention can also be shown to inhibit LPS-induced release of IL-1β, IL-6 and/or IL-8 from monocytes by measuring concentrations of IL-1β, IL-6 and/or IL-8 by methods well known to those skilled in the art. […] Thus, the compounds of the invention may lower elevated levels of TNF-α, IL-1, IL-6, and IL-8 levels. Reducing elevated levels of these inflammatory cytokines to basal levels or below is favorable in controlling, slowing progression, and alleviating many disease states.

[1] = system: THP1 cells (LPS-induced TNF-α); experiment: Lipopolysaccharide-activated THP1 cell TNF production assay; settings: Homo sapiens, THP-1, TNF-α secretion, read-out: THP-1 cell based assay IC50
Experimental: Lipopolysaccharide-Activated THP1 Cell TNF Production Assay
THP1 cells are resuspended in fresh THP1 media (RPMI 1640, 10% heat-inactivated FBS, 1XPGS, 1XNEAA, plus 30 μM βME) at a concentration of 1E6/mL. One hundred microliters of cells per well are plated in a polystyrene 96-well tissue culture. One microgram per mL of bacterial LPS is prepared in THP1 media and is transferred to the wells. Test compounds are dissolved in 100% DMSO and are serially diluted 3-fold in a polypropylene 96-well microtiter plate (drug plate). HI control and LO control wells contain only DMSO. One microliter of test compound from the drug plate followed by 10 μL of LPS are transferred to the cell plate. The treated cells are induced to synthesize and secrete TNF-α at 37° C. for 3 h. Forty microliters of conditioned media are transferred to a 96-well polypropylene plate containing 110 μL of ECL buffer (50 mM Tris-HCl pH 8.0, 100 mM NaCl, 0.05% Tween 20, 0.05% NaN3 and 1% FBS) supplemented with 0.44 nM MAB610 monoclonal Ab (R&D Systems), 0.34 nM ruthenylated AF210NA polyclonal Ab (R&D Systems) and 44 μg/mL sheep anti-mouse M280 Dynabeads (Dynal). After a 2 h incubation at room temperature with shaking, the reaction is read on the ECL M8 Instrument (IGEN Inc.). A low voltage is applied to the ruthenylated TNF-α immune complexes, which in the presence of TPA (the active component in Origlo), results in a cyclical redox reaction generating light at […]. The amount of secreted TNF-α in the presence of compound compared with that in the presence of DMSO vehicle alone (HI control) is calculated using the formula: % control (POC)=(cpd−average LO)/(average HI−average LO)*100. Data (consisting of POC and inhibitor concentration in μM) is fitted to a 4-parameter equation (y=A+((B−A)/(1+((x/C)^D))), where A is the minimum y (POC) value, B is the maximum y (POC), C is the x (cpd concentration) at the point of inflection and D is the slope factor) using a Levenburg-Marquardt non-linear regression algorithm.

p38α = p38α (Homo sapiens, UniProt Q16539); experiment: p38 in-vitro HTRF enzyme assay; format: biochemical; settings: recombinant human enzyme, read-out: p38a IC50
Experimental: p38 In-Vitro HTRF Enzyme Assay
The compounds of the invention can be tested for their respective affinities for the p38 protein using a conventional p38 in-vitro enzyme activity assay. For example, a P38-alpha HTRF assay may be used to measure the protein's in-vitro phosphorylation activity, and the data analyzed using time resolved fluorimetry techniques (FRET). A p38 HTRF assay is as follows. The kinase reaction buffer for p38α, p38β, p38δ and p38γ HTRF assays consists of 50 mM Tris-pH 7.5, 5 mM MgCl2, 0.1 mg/mL BSA, 100 μM Na3VO4 and 0.5 mM DTT. The HTRF detection buffer contains 100 mM HEPES-pH 7.5, 100 mM NaCl, 0.1% BSA, 0.05% Tween-20, and 10 mM EDTA. Each compound was dissolved in 100% DMSO and serially diluted (3 fold, 10 point) in a polypropylene 96-well microtiter plate (drug plate). The final starting concentration of the compound in the p38α […]and p38β enzymatic assays was about 1 μM. The final starting concentration of each compound in the p38δ and p38γ enzymatic assays was about 10 μM. The p38α, p38β, p38δ and p38γ kinase reactions were carried out in a polypropylene 96-well black round bottom assay plate in total volume of 30 μL kinase reaction buffer. Appropriate concentration of purified and activated enzyme (recombinant human) was mixed with indicated concentration of ATP and 100 nM GST-ATF2-Avitag, in the presence or absence (HI control) of each compound. In the absence of enzyme, the background was measured as LO control. HI controls and LO controls contained only DMSO. The reaction was allowed to incubate for 1 hour at RT. […] After 60 minutes incubation at room temperature, the assay plate was read in a Discovery Plate Reader. The wells were excited with coherent 320 nm light and the ratio of delayed ([…] post excitation) emissions at […] (native europium fluorescence) and 665 nm (europium fluorescence transferred to allophycocyanin—an index of substrate phosphorylation) was determined (Park et al, 1999). The resulting data was analyzed by taking the proportion of substrate phosphorylated in the kinase reaction in the presence of each individual compound and comparing it with that phosphorylated in the presence of DMSO vehicle alone (HI control). The data was calculated using the formula: % control (POC)=(compound−average LO)/(average HI−average LO)*100. Data (consisting of POC and inhibitor concentration in μM) was fitted to a 4-parameter equation (y=A+((B−A)/(1+((x/C)^D))), where A is the minimum y (POC) value, B is the maximum y (POC), C is the x (compound concentration) at the point of inflection and D is the slope factor, using a Levenburg-Marquardt non-linear regression algorithm. The inhibition constant (Ki) of the inhibitor was estimated from the IC50 (compound concentration at the point of inflection C) using the Cheng-Prussof equation: Ki=IC50/(1+S/Km), where S is the ATP substrate concentration, and Km is the Michaelis constant for ATP as determined experimentally. All results were expressed as the mean±the standard error of the mean. Data acquisition and non-linear regression algorithms were performed using Activity Base v5.2 and XLfit software v4.1 respectively. Additional assay information may be obtained in Park Y W, Cummings R T, Wu L, et al. Homogeneous Proximity Tyrosine Kinase Assays: Scintillation Proximity Assay versus Homogeneous Time-Resolved Fluorescence. Analytical Biochemistry. 1999; 269: 94-104.

Chain of p38α (Q16539 whole entry): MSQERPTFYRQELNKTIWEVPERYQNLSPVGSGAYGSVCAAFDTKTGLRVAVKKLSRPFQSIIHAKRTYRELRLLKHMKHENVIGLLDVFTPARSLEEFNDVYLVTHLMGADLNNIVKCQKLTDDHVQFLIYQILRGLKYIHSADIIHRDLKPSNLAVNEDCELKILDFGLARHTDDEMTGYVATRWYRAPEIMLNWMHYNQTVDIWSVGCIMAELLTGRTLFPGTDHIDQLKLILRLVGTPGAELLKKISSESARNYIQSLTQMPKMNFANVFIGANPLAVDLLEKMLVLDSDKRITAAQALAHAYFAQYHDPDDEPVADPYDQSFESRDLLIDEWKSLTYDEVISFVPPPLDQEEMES

| IC50 (IL-1) [nM] | IC50 [1] [nM] | IC50 (p38α) [nM] | SMILES |
| --- | --- | --- | --- |
| 25 to 100 | < 25 | < 25 | Cc1c(F)cc(C(=O)Nc2ccnn2C)cc1-c1ccc2c(c1)nnn2-c1ccccc1Cl [Example 9, 3-(1-(2-chlorophenyl)-1H-benzotriazol-5-yl)-5-fluoro-4-methyl-N-(1-methyl-1H-pyrazol-5-yl)benzamide] |
| 1000 to 5000 | < 25 | < 25 | Cc1c(F)cc(C(=O)NC2CC2)cc1-c1ccc2c(c1)nnn2C(C)(C)C [Example 10, N-cyclopropyl-3-(1-(1,1-dimethylethyl)-1H-benzotriazol-5-yl)-5-fluoro-4-methylbenzamide] |
| 25 to 100 | 25 to 100 |  | Cc1c(F)cc(C(=O)NC2CC2)cc1-c1ccc2c(c1)nnn2C1CCOCC1 [Example 11, N-cyclopropyl-3-fluoro-4-methyl-5-(1-(tetrahydro-2H-pyran-4-yl)-1H-benzotriazol-5-yl)benzamide] |

The next lines start with the molecule.

| SMILES | IC50 (IL-1) [nM] | IC50 [1] [nM] | IC50 (p38α) [nM] |
| --- | --- | --- | --- |
| Cc1ccc(C(=O)NC(C)C)cc1-c1ccc2c(c1)nnn2C(C)C [Example 4, 4-methyl-N-(1-methylethyl)-3-(1-(1-methylethyl)-1H-1,2,3-benzotriazol-5-yl)benzamide] | 1000 to 5000 | 250 to 1000 | < 25 |
| Cc1ccc(C(=O)NC2CC2)cc1-c1ccc2c(c1)nnn2C(C)C [Example 5, N-cyclopropyl-4-methyl-3-(1-(1-methylethyl)-1H-benzotriazol-5-yl)benzamide] | 1000 to 5000 | 25 to 100 | < 25 |
| Cc1c(F)cc(C(=O)NC2CC2)cc1-c1ccc2c(c1)nnn2-c1ccccc1Cl [Example 6, 3-(1-(2-chlorophenyl)-1H-benzotriazol-5-yl)-N-cyclopropyl-5-fluoro-4-methylbenzamide] | 100 to 250 | < 25 | < 25 |
| Cc1ccc(C(=O)NC2CC2)cc1-c1ccc2c(c1)nnn2-c1ccccc1Cl [Example 7, 3-(1-(2-chlorophenyl)-1H-benzotriazol-5-yl)-N-cyclopropyl-4-methylbenzamide] | 1000 to 5000 | 25 to 100 | < 25 |
| Cc1cc(F)ccc1-n1nnc2cc(-c3cc(C(=O)NC4CC4)cc(F)c3C)ccc21 [Example 8, N-cyclopropyl-3-fluoro-5-(1-(4-fluoro-2-methylphenyl)-1H-benzotriazol-5-yl)-4-methylbenzamide] | 100 to 250 | < 25 | < 25 |
